# Target: T1, Pancreatic alpha-amylase (Homo sapiens, UniProt P04746)
# T1 sequence (P04746 whole entry): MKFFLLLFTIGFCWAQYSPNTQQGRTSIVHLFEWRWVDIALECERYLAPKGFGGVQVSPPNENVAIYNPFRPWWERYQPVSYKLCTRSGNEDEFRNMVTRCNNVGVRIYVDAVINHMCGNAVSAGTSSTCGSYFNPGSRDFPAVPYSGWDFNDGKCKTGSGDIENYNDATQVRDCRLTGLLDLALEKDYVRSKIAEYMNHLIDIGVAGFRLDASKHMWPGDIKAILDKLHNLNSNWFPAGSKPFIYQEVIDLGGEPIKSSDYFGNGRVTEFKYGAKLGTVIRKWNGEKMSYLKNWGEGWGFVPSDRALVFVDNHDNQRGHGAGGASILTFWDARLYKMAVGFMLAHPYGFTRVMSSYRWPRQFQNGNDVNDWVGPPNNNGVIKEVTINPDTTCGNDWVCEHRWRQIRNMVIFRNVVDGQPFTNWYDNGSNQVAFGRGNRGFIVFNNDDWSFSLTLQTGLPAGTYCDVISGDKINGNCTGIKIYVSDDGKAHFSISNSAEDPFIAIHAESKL
# Experiment: Kinetic Studies
# Conditions: 30 °C
# Protocol: 2-Chloro-4-nitrophenyl α-d-maltotrioside (CNP-G3) was used as the substrate in a similar range of concentrations. Initial reaction rates for the release of chloronitrophenolate were measured and the further progress of substrate cleavage monitored continuously. Reactions were performed on a Varian Cary 4000 UV/Vis spectrophotometer at 400 nm and 30 °C.
row,SMILES,Ki
1,C[C@@H]1O[C@@H](O[C@@H]2CO[C@@H](Oc3c(O)cc(-c4oc5cc(O)cc(O)c5c(=O)c4O[C@@H]4O[C@@H](C)[C@H](O)[C@@H](O)[C@H]4O[C@@H]4O[C@H](CO)[C@@H](O)[C@H](O)[C@H]4O)cc3O)[C@H](O)[C@H]2O)[C@H](O)[C@H](O)[C@H]1O [MbA-CG (7)],2240 nM
2,C[C@@H]1O[C@@H](Oc2c(-c3cc(O)c(O[C@@H]4OC[C@@H](O)[C@H](O)[C@H]4O)c(O)c3)oc3cc(O)cc(O)c3c2=O)[C@H](O[C@@H]2O[C@H](CO)[C@@H](O)[C@H](O)[C@H]2O)[C@H](O)[C@H]1O [MbA-CGR (9)],128000 nM
3,C[C@@H]1O[C@@H](Oc2c(-c3cc(O)c(O[C@@H]4OC[C@@H](O)[C@H](O)[C@H]4O)c(O)c3)oc3cc(O)cc(O)c3c2=O)[C@H](O[C@@H]2O[C@H](CO)[C@@H](O)[C@H](O)[C@H]2O[C@@H]2O[C@H](CO)[C@@H](O)[C@H](O)[C@H]2O)[C@H](O)[C@H]1O [MbA-CR (8)],46800 nM
4,O=C(/C=C/c1ccc(O)c(O)c1)NCc1cn(CCCCCCOc2c(-c3ccc(O)c(O)c3)oc3cc(O)cc(O)c3c2=O)nn1 [mini-MbA analog inhibitor 10],13900 nM

# Stronger by Ki, values ahead:
row,Ki,SMILES
1,730 nM,C[C@@H]1O[C@@H](O[C@@H]2CO[C@@H](Oc3c(O)cc(-c4oc5cc(O)cc(O)c5c(=O)c4O[C@@H]4O[C@@H](C)[C@H](O)[C@@H](O)[C@H]4O[C@@H]4O[C@H](CO)[C@@H](O)[C@H](O)[C@H]4O[C@@H]4O[C@H](CO)[C@@H](O)[C@H](O)[C@H]4O)cc3O)[C@H](O)[C@H]2O)[C@H](O)[C@H](O)[C@H]1O [MbA-C (6)]
2,9.1 nM,C[C@@H]1O[C@@H](O[C@@H]2CO[C@@H](Oc3c(O)cc(-c4oc5cc(O)cc(O)c5c(=O)c4O[C@@H]4O[C@@H](C)[C@H](O)[C@@H](O)[C@H]4O[C@@H]4O[C@H](COC(=O)/C=C/c5ccc(O)c(O)c5)[C@@H](O)[C@H](O)[C@H]4O)cc3O)[C@H](O)[C@H]2O)[C@H](O)[C@H](O)[C@H]1O [MbA-G (1)]
3,79.3 nM,C[C@@H]1O[C@@H](Oc2c(-c3cc(O)c(O[C@@H]4OC[C@@H](O)[C@H](O)[C@H]4O)c(O)c3)oc3cc(O)cc(O)c3c2=O)[C@H](O[C@@H]2O[C@H](COC(=O)/C=C/c3ccc(O)c(O)c3)[C@@H](O)[C@H](O)[C@H]2O)[C@H](O)[C@H]1O [MbA-GR (4)]
4,42.4 nM,C[C@@H]1O[C@@H](Oc2c(-c3cc(O)c(O)c(O)c3)oc3cc(O)cc(O)c3c2=O)[C@H](O[C@@H]2O[C@H](COC(=O)/C=C/c3ccc(O)c(O)c3)[C@@H](O)[C@H](O)[C@H]2O[C@@H]2O[C@H](CO)[C@@H](O)[C@H](O)[C@H]2O)[C@H](O)[C@H]1O [MbA-RX (3)]
5,93.3 nM,C[C@@H]1O[C@@H](Oc2c(-c3cc(O)c(O)c(O)c3)oc3cc(O)cc(O)c3c2=O)[C@H](O[C@@H]2O[C@H](COC(=O)/C=C/c3ccc(O)c(O)c3)[C@@H](O)[C@H](O)[C@H]2O)[C@H](O)[C@H]1O [mini-MbA]

# — BindingDB's records for doi:10.1038/nchembio.1865 (University of British Columbia, 2015)
